Results reported in US20250121013A1, “USE OF BACILLUS AMYLOLIQUEFACIENS FOR PREVENTING AND TREATING PARKINSON'S DISEASE” (Artugen Therapeutics Ltd., priority 2021, published 2025).

What was measured:
MPTP-induced model of PD [1] = assay: Locomotion activity in MPTP zebrafish model (Example 6); assay type: in vivo; settings: larvae; MPTP 250 μM 96 to 120 hpf; ART24 4×10^6 CFU/mL in water of MPTP-exposed fish; 50 min alternating dark/light
Experimental: Zebrafish larvae were dosed with MPTP (250 μM; 96 to 120 hours post fertilization) or sham treated (DMSO only; n=22) in water. ART24 was dosed in water of MPTP-exposed fish (4×10^6 CFU/mL; n=16). Movement was evaluated with an imaging system during 50 min of testing consisting of 10-min periods of alternating darkness/bright light. Data was analyzed by one-way ANOVA followed by a Dunnet test comparing against MPTP treatment.

MPTP-induced model of PD [2] = assay: MPTP-induced mouse model of PD, striatal dopamine and DOPAC (Example 1); assay type: in vivo
Experimental: • Route(s) of administration: IP for MPTP (1-Methyl-4-phenyl-1,2,3,6-tetrahydropyridine hydrochloride) and vehicle, PO for ART24 and vehicle (trehalose) • Dose Volume(s): 10 mL/kg for MPTP, 0.1 mL for ART24 • Formulation(s): PBS for MPTP; saline-based formulation for ART24 • Dose Levels: 20 mg/kg for MPTP, for ART24 • Dose Frequency: 4 doses (QD) for MPTP; 11 days BID for ART24 • Study duration: 11 days • Number of Groups: 4 • Number of animals per group: 13 • Total number of animals: 52 (57 animals were enrolled in the study)
MPTP model. MPTP was formulated in phosphate buffered saline (PBS) and administered to mice QD for 4 days at a dose of 20 mg/kg (2 mg/mL delivered as 10 mL/kg).
Neurotransmitter measurements (DA and DOPAC). 10 mice from each were anesthetized and blood collected into K2EDTA tubes by a cardiac puncture. Brains were extracted and dissected. The rostral part was dissected and striata removed. The striata were frozen and subsequently evaluated for levels of dopamine and metabolites.
Striata were homogenized in 0.3M perchloric acid. The resulting supernatant was analyzed for levels of monoamines by reverse phase HPLC-ECD.
Data analysis. Data were analyzed using a two-way repeated measures ANOVA with a post hoc Fisher's LSD multiple comparison test. The raw data were also analyzed for outliers using ROUT method (Q=1%). GraphPad Prism 9 was used for data analysis and presentation.

[3] = MPTP 20 mg/kg IP QD 4 days compared to saline/vehicle treated animals
[4] = compared to saline/MPTP dosed animals, PO BID Day -3 to Day 7, MPTP 20 mg/kg IP QD 4 days, n=10/group

CN1CC=C(c2ccccc2)CC1.Cl [MPTP, 1-Methyl-4-phenyl-1,2,3,6-tetrahydropyridine hydrochloride]
total motor movement distance (MPTP-induced model of PD [1]): 24 % of sham | DOPAC content in the striatum (MPTP-induced model of PD [2]; [3]): significant depletion | dopamine content in the striatum (MPTP-induced model of PD [2]; [3]): significant depletion

OC[C@H]1O[C@H](O[C@H]2O[C@H](CO)[C@@H](O)[C@H](O)[C@H]2O)[C@H](O)[C@@H](O)[C@@H]1O [trehalose]
DOPAC concentration in the striatum (MPTP-induced model of PD [2]; [4]): did not produce a significant effect | dopamine concentration in the striatum (MPTP-induced model of PD [2]; [4]): did not produce a significant effect
